Reference: paper PMC11091220, “Metabolism-driven in vitro/in vivo disconnect of an oral ERɑ VHL-PROTAC” (Communications Biology, 2024)
Values joined by “and” are separate entries in the source; they are usually repeats but may differ in a detail not shown here. Equal values may be shown once.

What was measured:
ER-regulated genes = experiment: Gene expression analysis of ER-regulated genes (qPCR), MCF7 and CAMA1 cells; type: cell-based; details: 100 nM, 0.1 nM estradiol, 24 hours
Method: MCF7 and CAMA1 cells were plated at 1.2 x 10^6 cells/well into 6-well TC-treated plates in phenol red-free RPMI containing 5% charcoal-stripped FBS (F6765, Sigma) and treated with 0.1 nM estradiol in the presence of 100 nM fulvestrant, 100 nM AZD9833, 100 nM AZ’6421 or DMSO control for 24 hours. A non-estradiol-treated control was also included with 3 biological replicates per condition. Samples were harvested in 1 mL of QIAzol Lysis Buffer and snap-frozen. RNA was extracted using the RNeasy 96 QIAcube HT total RNA Cell with DNAse treatment following manufacturer instructions. Samples were randomized over 96-well plates. RNA concentration was quantified using the Qubit RNA BR kit (# Q10213 Invitrogen) and RNA integrity was analyzed on a bioanalyzer using the RNA 6000 Nano Kit (# 5067-1511-Agilent) following the manufacturer’s instructions. Targeted gene expression was performed using a 48 × 48 or 96 × 96 Fluidigm dynamic array (Fluidigm, San Francisco CA, USA) and Taqman primers (Thermo Scientific, Waltham, MA). […] The Fluidigm Array was then primed and loaded on an IFC Controller and quantitative PCR (qPCR) experiments were run on the Biomark System, using the standard Default_10 min_HotStart protocol or M96_default protocol for 48 × 48 or 96 × 96 chips, respectively. Data were collected and analysed using the Fluidigm Real-Time PCR Analysis software to generate the Ct values. […]

ERα = molecular target: T1, ERα (Homo sapiens, UniProt P03372); experiment: ERα degradation in a panel of ER+ cell lines (western blot); type: cell-based; details: 100 nM; for ERa degradation vs vehicle: 48 h, listed as AZ'6421
T1 construct: endogenous in cells; host or cells: MCF7 (also MCF7 engineered to express Cas9)
T1 sequence (P03372 1-595): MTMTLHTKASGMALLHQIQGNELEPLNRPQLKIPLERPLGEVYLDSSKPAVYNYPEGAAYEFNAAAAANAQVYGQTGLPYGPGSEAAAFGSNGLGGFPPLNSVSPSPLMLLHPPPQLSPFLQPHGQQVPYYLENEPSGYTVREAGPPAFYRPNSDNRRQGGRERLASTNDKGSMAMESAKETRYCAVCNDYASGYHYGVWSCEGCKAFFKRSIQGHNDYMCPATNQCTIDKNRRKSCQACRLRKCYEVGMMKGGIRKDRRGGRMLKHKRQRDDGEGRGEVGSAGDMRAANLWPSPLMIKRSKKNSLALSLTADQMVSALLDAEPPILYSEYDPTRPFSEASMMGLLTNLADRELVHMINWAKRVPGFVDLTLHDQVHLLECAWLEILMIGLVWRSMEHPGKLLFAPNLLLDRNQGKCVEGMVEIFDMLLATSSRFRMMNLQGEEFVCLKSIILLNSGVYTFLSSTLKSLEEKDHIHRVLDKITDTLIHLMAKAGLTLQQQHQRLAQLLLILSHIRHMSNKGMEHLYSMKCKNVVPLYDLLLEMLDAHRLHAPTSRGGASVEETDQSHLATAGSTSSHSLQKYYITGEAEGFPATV
Method: Fig. 3 AZ’6421 potently degrades ERα and inhibits ER-regulated gene transcription. a MCF7 cells were treated with increasing concentrations of AZ’6421 for 24 h and probed for ERα by immunoblot analysis. b SILAC experiment to measure ERα peptide turnover in MCF7 cells. Cells cultured in the presence of heavy L-arginine were switched at time T = 0 to media containing light L-arginine plus 0.1% DMSO, 1 µM AZ’6421, or 1 µM fulvestrant. Cells were collected at the indicated timepoints and the proportion of heavy-labelled ERα assessed by mass spectrometry. % ERα heavy peptide is plotted relative to DMSO control. Data points show the mean of 3 independent experiments with points in bold representing the mean. c A panel of ER+ cells were treated with 100 nM AZ’6421 for 48 h. ERα was normalised to vinculin and expressed as % of vehicle control. Data points represent an independent experiment for each cell line, error bars indicate ± s.e.m. d Heatmap showing changes in mRNA expression of a panel of ER-regulated genes. MCF7 and CAMA1 cells were stimulated with 0.1 nM estradiol in the presence of DMSO, 100 nM fulvestrant (Fulv), 100 nM AZD9833, or 100 nM AZ’6421 for 24 hours. Data points show 3 independent experiments. e Growth inhibition curves for MCF7 and CAMA1 cells, treated with increasing concentrations of AZ’6421 for 6 days. Data points show 4–5 independent experiments, bold points represent the mean. TEXT PRINTED IN THE PICTURE: (c) no label printed: Mean % ER Degradation, MCF-7: 96; Mean % ER Degradation, CAMA-1: 92; Mean % ER Degradation, ZR75-1: 95; Mean % ER Degradation, MDA-MB-134: 99; Mean % ER Degradation, BT474: 83; Mean % ER Degradation, HCC1428: 92; Mean % ER Degradation, T47D: 87 DOUBTS OF THE COPYIST ABOUT THIS PICTURE: Panel c prints no substance label for the Mean % ER Degradation values, so the substance is left empty.
Cells were seeded into 12-well tissue culture-treated plates at 0.5 x 10^6 cells/well in phenol red-free RPMI containing 5% (v/v) charcoal-stripped FBS (F6765, Sigma) and left to adhere overnight. In experiments to detect agonism or for SILAC experiments, FBS was double stripped using activated charcoal. […] Expression levels of proteins were determined by standard western blotting techniques (BioRad 4%-12% Bis-Tris gels). Antibodies were diluted in 5% milk-PBS-Tween and protein levels were detected using Pierce WestDura chemiluminescent reagents followed by visualisation and quantification on a Syngene ChemiGenius Imager. Where blots were quantified, protein levels were normalised to beta-actin or vinculin control and expressed as % of vehicle control.

Compound: Cc1ncsc1-c1ccc(CNC(=O)[C@@H]2C[C@@H](O)CN2C(=O)[C@@H](NC(=O)COCCCOCCCOc2cc(F)c([C@@H]3c4[nH]c5ccccc5c4C[C@@H](C)N3CC(C)(C)F)c(F)c2)C(C)(C)C)cc1 [Compound 5]
- expression of ER-regulated genes (ER-regulated genes): effectively supressed the expression of a range of ER-regulated genes
- ERα protein abundance, % of the vehicle (ERα; all cell lines tested): less than 20%
- ERa degradation vs vehicle (ERα; BT474): 4.37 and 5.82
- ERa degradation vs vehicle (ERα; HCC1428): 9.04 and 6.44
- ERa degradation vs vehicle (ERα; MDA-MB-134): 1.1 and 1.64
